Source: US9511042B2, “N-acyl amino acid derivatives for treating skin conditions such as cellulite” (HELIX BIOMEDIX INC., priority 2010, dated 2016)

Key:
[1] = system: 3T3-L1 adipocytes; experiment: Lipolysis: free fatty acid release in differentiated adipocytes (BioVision Free Fatty Acid Quantification Kit); type: cell-based, murine; conditions: 100 μg/ml, overnight; for free fatty acids production in adipocytes relative to known lipolysis inducers (FIG. 4): compared with carnitine, resveratrol, isoproterenol, aminophylline, theophylline, caffeine
Method: The degree of fatty acid release can be used to gauge the relative level of glycerol release given this correlation. The following methods were used to determine the effect of 4-methyl-2-(octanoylamino) pentanoic acid and N-isopentyloctanamide on lipolysis in adipocytes.
(§1) The induction of lipolysis in differentiated adipocytes was determined in 3T3-L1 adipocytes using a fatty acid assay kit manufactured by BioVision (Mountain View, Calif.) (Free Fatty Acid Quantification Kit, Cat. No. K612-100). Free fatty acid release correlates with an increase in the level of glycerol. Adipocytes for these assays were prepared as follows. 3T3-L1 murine pre-adipocytes were purchased from the American Type Culture Collection (ATCC) (CL-173™). The cells were cultured in complete medium (ATCC-formulated Dulbecco's Modified Eagle's Medium supplemented with 10% bovine calf serum) and allowed to reach 100% confluence. The induction of differentiation or adipogenesis was carried out in complete medium. On day 0, cells were treated with complete medium containing induction agents (100 μg/ml isobutylmethyxanthine (Sigma, St. Louis, Mo.), 5 μg/ml insulin and 2 μg/ml dexamethasone). On day 3, cells were changed to complete medium containing 5 μg/ml insulin and incubated for 2-3 days. Then, cells were maintained in complete medium for 3-6 days when the majority of cells developed observable intracellular lipid droplets.
For analyzing the effects of 4-methyl-2-(octanoylamino) pentanoic acid and N-isopentyloctanamide on lipolysis, cells (adipocytes prepared above) were treated with either of these compounds at 100 μg/ml. Alternatively, cells were treated overnight with certain substances (e.g., resveratrol, isoproterenol, aminophylline, theophylline) (100 μg/ml) previously known to be lipolysis inducers. Supernatant from each of the cultures was measured for relative glycerol release as estimated using the free fatty acid quantification kit from BioVision following the manufacturer's instructions.

[2] = system: 3T3-L1 adipocytes; experiment: Cytotoxicity to adipocytes at the concentrations used to stimulate lipolysis; type: cell-based, murine; conditions: at the concentrations used to stimulate lipolysis (data not shown)
Excerpt: Both HB2031 and HB2032 were not cytotoxic to 3T3-L1 adipocytes at the concentrations used to simulate lipolysis (data not shown).

[3] = system: EpiDerm™ Skin Model; experiment: EpiDerm MTT assay for cytotoxicity toward skin tissue; type: cell-based; conditions: for cell viability (OD570) compared to the glycerin vehicle: 100 μg/ml, 2, 5 and 18 hour incubation (FIG. 7); for toxicity to skin tissue: 1 mg/ml for 24 hours (data not shown)
[4] = system: 3T3-L1 preadipocytes; experiment: Adipogenesis assay, Oil red O staining of lipid droplets (Cayman Adipogenesis Assay Kit); type: cell-based, murine
Method: as §1
Intracellular lipid droplet production in adipocytes is a feature of adipogenesis. Therefore, adipogenesis was monitored by staining for lipid droplets in cells using the Adipogenesis Assay Kit from Cayman (Ann Arbor, Mich.) following the manufacture's instructions. […]

SMILES | free fatty acids production compared with isoproterenol, assay in triplicate (FIG. 5) [1] | free fatty acids production in adipocytes relative to known lipolysis inducers (FIG. 4) [1] | cytotoxicity to 3T3-L1 adipocytes [2] | cell viability (OD570) compared to the glycerin vehicle [3] | toxicity to skin tissue [3] | differentiation of cells into adipocytes (enlarged cells, intracellular lipid droplets) ([4]; 100, 150, 200 μg/ml with adipogenesis inducers for nine days, concentration dependent (FIG. 6C-E)) | intensity of cellular lipid formation (Oil red O staining) ([4]; low concentration (FIG. 6C, 100 μg/ml), nine days)
CCCCCCCC(=O)NC(CC(C)C)C(=O)O (stereo not drawn) [HB2031, 4-methyl-2-(octanoylamino) pentanoic acid] | significantly more active than isoproterenol | to a higher degree than all the other compounds tested | not cytotoxic | no difference in cell viability | no toxicity | – | –
CCCCCCCC(=O)NCCC(C)C [HB2032, N-isopentyloctanamide] | significantly more active than isoproterenol | to a higher degree than all the other compounds tested | not cytotoxic | no difference in cell viability | no toxicity | inhibited the differentiation of cells into adipocytes | significantly reduced
